The source of these data is patent US8871946B2, “Benzimidazole-4-carboxamide derivatives, their preparation methods, pharmaceutical compositions and their uses” (Zhejiang Medicine Co., Ltd. Xinchang Pharmaceutical Factory, priority 2009, dated 2014).

Converted amounts (≈) assume the structure as drawn. Where only a bound is given, the exact number is not on record here.

What is called IC50 is the concentration that gives 50% inhibition. A lower IC50 goes with greater potency in that assay.

The test relates to coxsackie B3 viruses. The test is described as follows: Measures of anti-coxsackie B3 viruses activity of the compounds in Vero cells. The format is cell-based. Conditions: half inhibitory concentration for viruses. An excerpt:
Measures of Anti-Coxsackie B3 Viruses Activity of the Compounds The products are applied for measures of antivirus properties of Vero cells. Refer to the results of Table 3: datum of anti-coxsackie B3 viruses activities of some compounds. […] IC50 indicates half inhibitory concentration for viruses. RBV indicates triazole nucleoside, is also called ribavirin, virazole.
Consider `O=C(Nc1ccccc1O)c1cccc2[nH]c(-c3cccnn3)nc12` [2-(3-pyridazinyl)-1H-benzimidazole-4-(N-o-hydroxyphenyl)amide], for which the “IC50” value was 15.2 µg/mL (≈ 45.9 µM).

As to `Nc1ccc(NC(=O)c2cccc3[nH]c(-c4cccnn4)nc23)cc1` [2-(3-pyridazinyl)-1H-benzimidazole-4-(N-p-aminophenyl)amide], the half-inhibitory concentration (IC50) came to 10.2 µg/mL (≈ 30.9 µM).

For `CC(NC(=O)c1cccc2[nH]c(-c3cccnc3)nc12)C(O)c1ccc(Cl)cc1` (stereo not drawn) [2-(3-pyridyl)-1H-benzimidazole-4-[N-(1-methyl-2-p-chlorophenylhydroxyethyl)]amide], the “IC50” value worked out at 2.37 µg/mL (≈ 5.82 µM).

`Nc1ncnc(Cl)c1-c1nc2c(C(=O)Nc3ccccc3F)cccc2[nH]1` [2-(4-amino-6-chloro-5-pyrimidinyl)-1H-benzimidazole-4-(N-o-fluorophenyl)amide]: the “IC50” value worked out at 11.3 µg/mL (≈ 29.5 µM).

With `Nc1ncnc(Cl)c1-c1nc2c(C(=O)Nc3ccccc3O)cccc2[nH]1` [2-(4-amino-6-chloro-5-pyrimidinyl)-1H-benzimidazole-4-(N-o-hydroxyphenyl)amide], the “IC50” value is 12.3 µg/mL (≈ 32.3 µM).

For `Nc1ccc(NC(=O)c2cccc3[nH]c(-c4c(N)ncnc4Cl)nc23)cc1` [2-(4-amino-6-chloro-5-pyrimidinyl)-1H-benzimidazole-4-(N-p-aminophenyl)amide], the “IC50” value turned out to be 14.1 µg/mL (≈ 37.1 µM).

Consider `CN(C)c1ccnc(-c2nc3c(C(=O)Nc4ccc(N)cc4)cccc3[nH]2)c1` [2-(4-dimethylaminopyridyl)-1H-benzimidazole-4-(N-p-aminophenyl)amide], for which the “IC50” value was found to be 10.2 µg/mL (≈ 27.4 µM).

On to `COc1ccnc(-c2nc3c(C(=O)Nc4ccccc4O)cccc3[nH]2)c1` [2-(4-methoxypyridyl)-1H-benzimidazole-4-(N-o-hydroxyphenyl)amide], for which the “IC50” value is 16.2 µg/mL (≈ 45 µM).

`COc1ccnc(-c2nc3c(C(=O)Nc4ccc(N)cc4)cccc3[nH]2)c1` [2-(4-methoxypyridyl)-1H-benzimidazole-4-(N-p-aminophenyl)amide]: the “IC50” value was found to be 13.4 µg/mL (≈ 37.3 µM).

With `Cc1nc(-c2nc3c(C(=O)Nc4ccccc4F)cccc3[nH]2)sc1N` [2-(4-methyl-5-aminothiazolyl)-1H-benzimidazole-4-(N-o-fluorophenyl)amide], the “IC50” value was 10.2 µg/mL (≈ 27.8 µM).

Consider `Cc1nc(-c2nc3c(C(=O)Nc4ccc(N)cc4)cccc3[nH]2)sc1N` [2-(4-methyl-5-aminothiazolyl)-1H-benzimidazole-4-(N-p-aminophenyl)amide], for which the “IC50” value turned out to be 9.8 µg/mL (≈ 26.9 µM).

`Nc1ccc(-c2nc3c(C(=O)Nc4ccccc4F)cccc3[nH]2)s1` [2-(5-amino-2-thienyl)-1H-benzimidazole-4-(N-o-fluorophenyl)amide]: the “IC50” value was 3.5 µg/mL (≈ 9.93 µM).

As to `Cc1ccccc1NC(=O)c1cccc2[nH]c(-c3ccc(N)s3)nc12` [2-(5-amino-2-thienyl)-1H-benzimidazole-4-(N-o-methylphenyl)amide], the “IC50” value worked out at 8.7 µg/mL (≈ 25 µM).

For `Nc1ccc(-c2nc3c(C(=O)Nc4ccc(O)cc4)cccc3[nH]2)s1` [2-(5-amino-2-thienyl)-1H-benzimidazole-4-(N-p-hydroxyphenyl)amide], the “IC50” value came to 6.5 µg/mL (≈ 18.6 µM).

Consider `Cc1ccc(-c2nc3c(C(=O)Nc4ccccc4O)cccc3[nH]2)s1` [2-(5-methy-2-thienyl)-1H-benzimidazole-4-(N-o-hydroxyphenyl)amide], for which the “IC50” value turned out to be 18.5 µg/mL (≈ 52.9 µM).

Consider `CC(NC(=O)c1cccc2[nH]c(-c3ccc([N+](=O)[O-])s3)nc12)C(O)c1ccc(Cl)cc1` (stereo not drawn) [2-(5-nitro-2-thienyl)-1H-benzimidazole-4-(N-(1-methyl-2-p-chlorophenylhydroxyethyl))-amide], for which the “IC50” value was found to be 7.12 µg/mL (≈ 15.6 µM).

For the compound `O=C(Nc1ccccc1F)c1cccc2[nH]c(-c3ccc([N+](=O)[O-])s3)nc12` [2-(5-nitro-2-thienyl)-1H-benzimidazole-4-(N-(2-fluorophenyl))-amide], the half-inhibitory concentration (IC50) was greater than 9.25 µg/mL.

Turning to `Cn1cccc1-c1nc2c(C(=O)Nc3ccccc3F)cccc2[nH]1` [2-(N-methyl-2-pyrrolyl)-1H-benzimidazole-4-(N-o-fluorophenyl)amide], the “IC50” value stood at 13.2 µg/mL (≈ 39.5 µM).

With `O=C(Nc1ccccc1F)c1cccc2[nH]c(N3CCNCC3)nc12` [2-N-piperazinyl-1H-benzimidazole-4-(N-o-fluorophenyl)amide], the half-maximal inhibitory concentration (IC50) came to 4.8 µg/mL (≈ 14.1 µM).

On to `Nc1ccc(NC(=O)c2cccc3[nH]c(N4CCNCC4)nc23)cc1` [2-N-piperazinyl-1H-benzimidazole-4-(N-p-aminophenyl)amide], for which the “IC50” value was 6.3 µg/mL (≈ 18.7 µM).

Consider `O=C(Nc1ccccc1F)c1cccc2[nH]c(-c3cccs3)nc12` [2-thienyl-1H-benzimidazole-4-(N-(2-fluorophenyl)-amide], for which the 50% inhibitory concentration (IC50) worked out at 1.06 µg/mL (≈ 3.14 µM).

As to `Nc1ccc(NC(=O)c2cccc3[nH]c(-c4cncs4)nc23)cc1` [5-thiazolyl-1H-benzimidazole-4-(N-p-aminophenyl)amide], the “IC50” value worked out at 13.5 µg/mL (≈ 40.3 µM).

As for `CN1CCN(C)C(c2nc3c(C(=O)NC(CO)C(O)c4ccc([N+](=O)[O-])cc4)cccc3[nH]2)C1` (stereo not drawn) [(L)-2-(2-N-methyl-4-N-methylpiperazinyl)-1H-benzimidazole-4-[N-(1-hydroxymethyl-2-p-nitrophenylhydroxyethyl)]amide], the “IC50” value is 9.2 µg/mL (≈ 19.6 µM).

`O=C(NC(CO)C(O)c1ccc([N+](=O)[O-])cc1)c1cccc2[nH]c(-c3cnc(-c4ccccc4)nc3)nc12` (stereo not drawn) [(L)-2-(2-phenyl-5-pyrimidinyl)-1H-benzimidazole-4-[N-(1-hydroxymethyl-2-p-nitrophenylhydroxyethyl)]amide]: the “IC50” value was 12.0 µg/mL (≈ 23.5 µM).

Regarding `O=C(NC(CO)C(O)c1ccc([N+](=O)[O-])cc1)c1cccc2[nH]c(C3CCCCN3)nc12` (stereo not drawn) [(L)-2-(2-piperidinyl)-1H-benzimidazole-4-[N-(1-hydroxymethyl-2-p-nitrophenylhydroxyethyl)]amide], the “IC50” value stood at 17.2 µg/mL (≈ 39.1 µM).

On to `O=C(NC(CO)C(O)c1ccc([N+](=O)[O-])cc1)c1cccc2[nH]c(-c3cnccn3)nc12` (stereo not drawn) [(L)-2-(2-pyrazinyl)-1H-benzimidazole-4-[N-(1-hydroxymethyl-2-p-nitrophenylhydroxyethyl)]amide], for which the “IC50” value came out at 2.3 µg/mL (≈ 5.29 µM).

As for `O=C(NC(CO)C(O)c1ccc([N+](=O)[O-])cc1)c1cccc2[nH]c(-c3ccccn3)nc12` (stereo not drawn) [(L)-2-(2-pyridyl)-1H-benzimidazole-4-[N-(1-hydroxymethyl-2-p-nitrophenylhydroxyethyl)]amide], the half-inhibitory concentration (IC50) amounted to 1.76 µg/mL (≈ 4.06 µM).

On to `O=C(NC(CO)C(O)c1ccc([N+](=O)[O-])cc1)c1cccc2[nH]c(-c3ncccn3)nc12` (stereo not drawn) [(L)-2-(2-pyrimidinyl)-1H-benzimidazole-4-[N-(1-hydroxymethyl-2-p-nitrophenylhydroxyethyl)]amide], for which the half-maximal inhibitory concentration (IC50) was determined as 9.8 µg/mL (≈ 22.6 µM).

As for `O=C(NC(CO)C(O)c1ccc([N+](=O)[O-])cc1)c1cccc2[nH]c(-c3ccc[nH]3)nc12` (stereo not drawn) [(L)-2-(2-pyrrolyl)-1H-benzimidazole-4-[N-(1-hydroxymethyl-2-p-nitrophenylhydroxyethyl)]amide], the “IC50” value turned out to be 5.3 µg/mL (≈ 12.6 µM).

Consider `O=C(NC(CO)C(O)c1ccc([N+](=O)[O-])cc1)c1cccc2[nH]c(-c3cccs3)nc12` (stereo not drawn) [(L)-2-(2-thienyl)-1H-benzimidazole-4-[N-(1-hydroxymethyl-2-p-nitrophenylhydroxyethyl)]amide], for which the 50% inhibitory concentration (IC50) worked out at 15.90 µg/mL (≈ 36.3 µM).

On to `O=C(NC(CO)C(O)c1ccc([N+](=O)[O-])cc1)c1cccc2[nH]c(-c3cc(O)c(O)c(O)c3)nc12` (stereo not drawn) [(L)-2-(3,4,5-trihydroxyphenyl)-1H-benzimidazole-4-[N-(1-hydroxymethyl-2-p-nitrophenylhydroxyethyl)]amide], for which the “IC50” value came out at 10.2 µg/mL (≈ 21.2 µM).

On to `Cc1cc(C)c(-c2nc3c(C(=O)NC(CO)C(O)c4ccc([N+](=O)[O-])cc4)cccc3[nH]2)[nH]1` (stereo not drawn) [(L)-2-(3,5-dimethyl-2-pyrrolyl)-1H-benzimidazole-4-[N-(1-hydroxymethyl-2-p-nitrophenylhydroxyethyl)]amide], for which the “IC50” value was 8.6 µg/mL (≈ 19.1 µM).

As to `O=C(NC(CO)C(O)c1ccc([N+](=O)[O-])cc1)c1cccc2[nH]c(-c3cccnn3)nc12` (stereo not drawn) [(L)-2-(3-pyridazinyl)-1H-benzimidazole-4-[N-(1-hydroxymethyl-2-p-nitrophenylhydroxyethyl)]amide], the half-inhibitory concentration (IC50) amounted to 5.8 µg/mL (≈ 13.4 µM).

As for `Nc1ncnc(Cl)c1-c1nc2c(C(=O)NC(CO)C(O)c3ccc([N+](=O)[O-])cc3)cccc2[nH]1` (stereo not drawn) [(L)-2-(4-amino-6-chloro-5-pyrimidinyl)-1H-benzimidazole-4-[N-(1-hydroxymethyl-2-p-nitrophenylhydroxyethyl)]amide], the “IC50” value is 17.2 µg/mL (≈ 35.5 µM).

Regarding `CN(C)c1ccnc(-c2nc3c(C(=O)NC(CO)C(O)c4ccc([N+](=O)[O-])cc4)cccc3[nH]2)c1` (stereo not drawn) [(L)-2-(4-dimethylaminopyridyl)-1H-benzimidazole-4-[N-(1-hydroxymethyl-2-p-nitrophenylhydroxyethyl)]amide], the “IC50” value came to 10.2 µg/mL (≈ 21.4 µM).

For the compound `COc1ccnc(-c2nc3c(C(=O)NC(CO)C(O)c4ccc([N+](=O)[O-])cc4)cccc3[nH]2)c1` (stereo not drawn) [(L)-2-(4-methoxypyridyl)-1H-benzimidazole-4-[N-(1-hydroxymethyl-2-p-nitrophenylhydroxyethyl)]amide], the “IC50” value is 6.3 µg/mL (≈ 13.6 µM).

As to `Cc1nc(-c2nc3c(C(=O)NC(CO)C(O)c4ccc([N+](=O)[O-])cc4)cccc3[nH]2)sc1N` (stereo not drawn) [(L)-2-(4-methyl-5-aminothiazolyl)-1H-benzimidazole-4-[N-(1-hydroxymethyl-2-p-nitrophenylhydroxyethyl)]amide], the “IC50” value turned out to be 8.9 µg/mL (≈ 19 µM).

As for `Nc1ccc(-c2nc3c(C(=O)NC(CO)C(O)c4ccc([N+](=O)[O-])cc4)cccc3[nH]2)s1` (stereo not drawn) [(L)-2-(5-amino-2-thienyl)-1H-benzimidazole-4-[N-(1-hydroxymethyl-2-p-nitrophenylhydroxyethyl)]amide], the “IC50” value worked out at 2.3 µg/mL (≈ 5.07 µM).

Turning to `O=C(NC(CO)C(O)c1ccc([N+](=O)[O-])cc1)c1cccc2[nH]c(-c3ccc([N+](=O)[O-])s3)nc12` (stereo not drawn) [(L)-2-(5-nitro-2-thienyl)-1H-benzimidazole-4-[N-(1-hydroxymethyl-2-p-nitrophenylhydroxyethyl)]amide], the “IC50” value turned out to be 10.69 µg/mL (≈ 22.1 µM).
